Source: PMC8286840, “Identifying SARS-CoV-2 antiviral compounds by screening for small molecule inhibitors of Nsp3 papain-like protease” (Biochemical Journal, 2021)
Where a name gives a salt, the structure may show the parent alone. Read-outs that look alike come from different tables or passages of the source.

Legend:
[1] = target: T1, SARS-CoV-2 PLpro (nsp3 1564–1878) (Severe acute respiratory syndrome coronavirus 2, UniProt P0DTD1); assay: biochemical; set-up: FRET-quenched peptide (Pro3) cleavage by PLpro, 10 min pre-incubation, slope over 20 min, normalised to no-compound control; conditions: read-out: % of control remaining
[2] = target: T1, SARS-CoV-2 PLpro (nsp3 1564–1878); assay: biochemical; set-up: FRET-quenched peptide (Pro3) cleavage by PLpro, 10 min pre-incubation, slope over 20 min, normalised to no-compound control; conditions: read-out: % of control remaining; remark: listed apart in the source

## OC[C@H]1O[C@@H](n2cnc3c(NCCc4ccccc4)ncnc32)[C@H](O)[C@@H]1O [N6-(2-Phenylethyl)adenosine]
[1]; Well no.=8431, low concentration screen
  remaining activity at 1.25 µM: 96.1%
[2]; Well no.=8431, high concentration screen
  remaining activity at 3.75 µM: 96.2%

## CCCCCC/C=C\CCCCCCCCCC(=O)O [11(Z)-Octadecenoic acid]
[1]; Well no.=4348, low concentration screen
  remaining activity at 1.25 µM: 102%
[2]; Well no.=4348, high concentration screen
  remaining activity at 3.75 µM: 94%

## CCN(CC)CCOC(=O)C(Cc1cccc2ccccc12)CC1CCCO1 (centres unmarked) [Naftidrofuryl (oxalate)]
[1]; Well no.=7050, low concentration screen
  remaining activity at 1.25 µM: 98%
[2]; Well no.=7050, high concentration screen
  remaining activity at 3.75 µM: 93.7%

## Cc1c(C)c2c(c(C)c1O)CCC(C)(C(=O)O)O2 (centres unmarked) [Trolox]
[1]; Well no.=3899, low concentration screen
  remaining activity at 1.25 µM: 101%
[2]; Well no.=3899, high concentration screen
  remaining activity at 3.75 µM: 99.4%

## C[C@@H](Oc1cc(NS(=O)(=O)N2CCC2)nc(SCc2cccc(F)c2F)n1)[C@@H](O)CO [AZD-5069]
[1]; Well no.=8409, low concentration screen
  remaining activity at 1.25 µM: 102%
[2]; Well no.=8409, high concentration screen
  remaining activity at 3.75 µM: 101%

## COCC[n+]1c2c(n(Cc3cnccn3)c1C)C(=O)c1ccccc1C2=O [YM-155]
[1]; Well no.=6678, low concentration screen
  remaining activity at 1.25 µM: 94.8%
[2]; Well no.=6678, high concentration screen
  remaining activity at 3.75 µM: 91.4%

## C[C@H](O)[C@@H](O)[C@@H](O)[C@H](O)C=O [(-)-Fucose]
[1]; Well no.=6549, low concentration screen
  remaining activity at 1.25 µM: 98.1%
[2]; Well no.=6549, high concentration screen
  remaining activity at 3.75 µM: 91.4%

## CCn1c(=O)[nH]c2cc(Cl)c(Cl)cc21 [DCEBIO]
[1]; Well no.=538, low concentration screen
  remaining activity at 1.25 µM: 102%
[2]; Well no.=538, high concentration screen
  remaining activity at 3.75 µM: 104%

## O=C1NCN(c2ccccc2)C12CCN(CC1COc3ccccc3O1)CC2 (centres unmarked) [Spiroxatrine]
[1]; Well no.=1277, low concentration screen
  remaining activity at 1.25 µM: 99.7%
[2]; Well no.=1277, high concentration screen
  remaining activity at 3.75 µM: 102%

## O=C(NC1CCN(CCCCC2(C(=O)NCC(F)(F)F)c3ccccc3-c3ccccc32)CC1)c1ccccc1-c1ccc(C(F)(F)F)cc1 [Lomitapide]
[1]; Well no.=8672, low concentration screen
  remaining activity at 1.25 µM: 93.8%
[2]; Well no.=8672, high concentration screen
  remaining activity at 3.75 µM: 93.5%

## COC(=O)/C=C/C(=O)OC [Dimethyl Fumarate]
[1]; Well no.=5294, low concentration screen
  remaining activity at 1.25 µM: 93.6%
[2]; Well no.=5294, high concentration screen
  remaining activity at 3.75 µM: 94.2%

## O=[N+]([O-])c1ncc[nH]1 [Azomycin]
[1]; Well no.=3571, low concentration screen
  remaining activity at 1.25 µM: 109%
[2]; Well no.=3571, high concentration screen
  remaining activity at 3.75 µM: 103%

## CC[C@@H]1C(=O)OC[C@@H]1Cc1cncn1C [Pilocarpine.HCl]
[1]; Well no.=1793, low concentration screen
  remaining activity at 1.25 µM: 98.6%
[1]; Well no.=3729, low concentration screen
  remaining activity at 1.25 µM: 101%
[2]; Well no.=1793, high concentration screen
  remaining activity at 3.75 µM: 98.6%
[2]; Well no.=3729, high concentration screen
  remaining activity at 3.75 µM: 105%

## C[N+]1(C)CCC[C@H]1C(=O)[O-] [Stachydrine hydrochloride]
[1]; Well no.=8032, low concentration screen
  remaining activity at 1.25 µM: 98.3%
[2]; Well no.=8032, high concentration screen
  remaining activity at 3.75 µM: 96.9%

## CC(C)[C@H](CO)Nc1nc(Nc2cc(N)cc(Cl)c2)c2ncn(C(C)C)c2n1 [Aminopurvalanol A - (2R)-2-[[6-[(3-Amino-5-chlorophenyl)amino]-9-(1-methylethyl)-9H-purin-2-yl]amino]-3-methyl-1-butanol]
[1]; Well no.=2484, low concentration screen
  remaining activity at 1.25 µM: 101%
[2]; Well no.=2484, high concentration screen
  remaining activity at 3.75 µM: 108%

## Cc1[nH]c(=O)c(C#N)cc1-c1ccncc1 [Milrinone]
[1]; Well no.=832, low concentration screen
  remaining activity at 1.25 µM: 101%
[1]; Well no.=2150, low concentration screen
  remaining activity at 1.25 µM: 95.5%
[2]; Well no.=832, high concentration screen
  remaining activity at 3.75 µM: 101%
[2]; Well no.=2150, high concentration screen
  remaining activity at 3.75 µM: 97.1%

## Nc1cc(=O)[nH]c(N)n1 [2,6-Diamino-4-pyrimidinone]
[1]; Well no.=452, low concentration screen
  remaining activity at 1.25 µM: 104%
[2]; Well no.=452, high concentration screen
  remaining activity at 3.75 µM: 99.9%

## CC(=O)S[C@@H]1CC2=CC(=O)CC[C@]2(C)[C@H]2CC[C@@]3(C)[C@@H](CC[C@@]34CCC(=O)O4)[C@H]12 [Spironolactone]
[1]; Well no.=1266, low concentration screen
  remaining activity at 1.25 µM: 97.8%
[1]; Well no.=2253, low concentration screen
  remaining activity at 1.25 µM: 93%
[2]; Well no.=1266, high concentration screen
  remaining activity at 3.75 µM: 93.5%
[2]; Well no.=2253, high concentration screen
  remaining activity at 3.75 µM: 82.7%

## Clc1ccc(N2CCN(Cc3c[nH]c4ncccc34)CC2)cc1 [L-745,870 hydrochloride]
[1]; Well no.=1108, low concentration screen
  remaining activity at 1.25 µM: 92.3%
[2]; Well no.=1108, high concentration screen
  remaining activity at 3.75 µM: 95.9%

## Cc1ccc(-c2n[nH]c3c2C(c2cccc(O)c2)N(c2ccc(C(=O)O)cc2)C3=O)cc1 (centres unmarked) [4-(4-(3-hydroxyphenyl)-3-(4-methylphenyl)-6-oxo-4,6-dihydropyrrolo[3,4-c]pyrazol-5(1H)-yl)benzoic acid]
[1]; Well no.=5969, low concentration screen
  remaining activity at 1.25 µM: 100%
[2]; Well no.=5969, high concentration screen
  remaining activity at 3.75 µM: 97.4%

## CC/C=C\C/C=C\C/C=C\C/C=C\CCCCC(=O)O [6(Z), 9(Z), 12(Z), 15(Z)-Octadecatetraenoic acid]
[1]; Well no.=4398, low concentration screen
  remaining activity at 1.25 µM: 101%
[2]; Well no.=4398, high concentration screen
  remaining activity at 3.75 µM: 97.4%

## COc1ccccc1C(=O)O [2-Methoxybenzoic acid]
[1]; Well no.=6583, low concentration screen
  remaining activity at 1.25 µM: 103%
[2]; Well no.=6583, high concentration screen
  remaining activity at 3.75 µM: 101%

## CC(C)n1cnc2c(NCCc3ccc(O)cc3)nc(-c3csc4ccccc34)nc21 [StemRegenin 1]
[1]; Well no.=4827, low concentration screen
  remaining activity at 1.25 µM: 101%
[2]; Well no.=4827, high concentration screen
  remaining activity at 3.75 µM: 98.2%

## O=C1NC(=O)c2c1c1c3ccccc3[nH]c1n1cncc21 [Isogranulatimide]
[1]; Well no.=2504, low concentration screen
  remaining activity at 1.25 µM: 94.2%
[2]; Well no.=2504, high concentration screen
  remaining activity at 3.75 µM: 90.7%

## Nc1ccccc1C(=O)C[C@H](N)C(=O)O [L-Kynurenine]
[1]; Well no.=7221, low concentration screen
  remaining activity at 1.25 µM: 95.5%
[2]; Well no.=7221, high concentration screen
  remaining activity at 3.75 µM: 92%

## CC(NC(=O)c1ccccc1/N=C/c1c(O)ccc2ccccc12)c1ccccc1 (centres unmarked) [Sirtinol]
[1]; Well no.=4783, low concentration screen
  remaining activity at 1.25 µM: 103%
[2]; Well no.=4783, high concentration screen
  remaining activity at 3.75 µM: 99.9%

## Nc1c(S(=O)(=O)O)cc(Nc2ccc(Nc3nc(Cl)nc(Nc4cccc(S(=O)(=O)O)c4)n3)c(S(=O)(=O)O)c2)c2c1C(=O)c1ccccc1C2=O [Reactive Blue 2]
[1]
  remaining activity at 1.25 µM: 101%
[2]
  remaining activity at 3.75 µM: 101%

## O=C(O)CC1CCC2(CC1)CCN(c1cc(OC(F)(F)F)ccc1Cl)CC2 [GPR120-IN-1]
[1]; Well no.=8485, low concentration screen
  remaining activity at 1.25 µM: 104%
[2]; Well no.=8485, high concentration screen
  remaining activity at 3.75 µM: 96.8%

## CCN(CCCc1ccccc1)CCCc1ccccc1 [Alverine (citrate)]
[1]; Well no.=8203, low concentration screen
  remaining activity at 1.25 µM: 106%
[2]; Well no.=8203, high concentration screen
  remaining activity at 3.75 µM: 106%

## C[C@@H](c1ncncc1F)[C@](O)(Cn1cncn1)c1ccc(F)cc1F [Voriconazole]
[1]; Well no.=4857, low concentration screen
  remaining activity at 1.25 µM: 101%
[2]; Well no.=4857, high concentration screen
  remaining activity at 3.75 µM: 103%

## C[N+]1(C)CCC(OC(=O)C(O)(c2ccccc2)C2CCCC2)C1 (centres unmarked) [Glycopyrrolate]
[1]; Well no.=7471, low concentration screen
  remaining activity at 1.25 µM: 102%
[2]; Well no.=7471, high concentration screen
  remaining activity at 3.75 µM: 103%

## CCCCCC/C=C/CCCCCCCCC(=O)O [10(E)-Heptadecenoic acid]
[1]; Well no.=4312, low concentration screen
  remaining activity at 1.25 µM: 104%
[2]; Well no.=4312, high concentration screen
  remaining activity at 3.75 µM: 96.7%

## C[C@H]1[C@H](C)CC[C@]2(C(=O)O)CC[C@]3(C)C(=CC[C@@H]4[C@@]5(C)C[C@@H](O)[C@H](O)[C@@](C)(CO)[C@@H]5CC[C@]43C)[C@H]12 [Asiatic acid]
[1]; Well no.=3509, low concentration screen
  remaining activity at 1.25 µM: 100%
[2]; Well no.=3509, high concentration screen
  remaining activity at 3.75 µM: 103%

## C[N+]1(C)[C@@H]2C[C@@H](OC(=O)[C@H](CO)c3ccccc3)C[C@H]1[C@@H]1O[C@@H]12 [Methscopolamine (bromide)]
[1]; Well no.=8297, low concentration screen
  remaining activity at 1.25 µM: 97.7%
[2]; Well no.=8297, high concentration screen
  remaining activity at 3.75 µM: 96.8%
